Data taken from patent publication US20040091578A1 (priority 2001, published 2004).
Like-named read-outs stand apart in the source and are kept apart here.

What was measured:
Glutenin 30-40 kDa = experiment: Reductant specificity of glutenins, mBBr/SDS-PAGE; format: biochemical, Triticum durum
Procedure: (§1) For isolation of insoluble storage proteins, semolina (0.2 g) was extracted sequentially with 1 ml of the following solutions for the indicated times at 25° C.: (1) 50 mM Tris-HCl, pH 7.5 (20 min); (2) 70% ethanol (2 hr); and (3) 0.1 M acetic acid (2 hr). During extraction, samples were placed on an electrical rotator and, in addition, occasionally agitated with a vortex mixer. After extraction with each solvent, samples were centrifuged (12,000 rpm for 5 min) in an Eppendorf microfuge and, supernatant fractions were saved for analysis. In between each extraction, pellets were washed with 1 ml of water, collected by centrifugation as before and the supernatant wash fractions were discarded. By convention, the fractions are designated: (1) albumin/globulin; (2) gliadin; and (3) glutenin.
(§2) Reactions were carried out in 100 mM Tris-HCl buffer, pH 7.9. As indicated, 0.7 μg NTR and 1 μg thioredoxin (both from E. coli unless specified otherwise) were added to 70 μl of this buffer containing 1 mM NADPH and 10 μg of target protein.
(§3) SDS-polyacrylamide electrophoresis of the mBBr-derivatized samples was performed in 15% gels at pH 8.5 as described by Laemmli, U. K. (1970), Nature 227:680-685. Gels of 1.5 mm thickness were developed for 16 hr. at a constant current of 9 mA.
(§4) The Polaroid negatives of fluorescent gels and prints of wet protein stained gels were scanned with a laser densitometer (Pharmacia-LKB UltroScan XL). Fluorescence was quantified by evaluating peak areas after integration with GelScan XL software.

Glutenin 60-110 kDa = experiment: Reductant specificity of glutenins, mBBr/SDS-PAGE; format: biochemical, Triticum durum
Procedure: as §1, §2, §3, §4

[1] = system: dogs sensitized to cow's milk; experiment: Skin tests, ED50 and relative allergenicity (Example 44); format: in vivo, dog; settings: all dogs tested
Procedure: Reduction and Blocking of Protein Disutfide Bond. […] Following gel filtration with a Sephadex G-25 column (Amersham Pharmacia) to remove reductants, the reduced protein (less than 0.25 mg/ml) was incubated either without addition or with 10 mM oxidized glutathione (GSSG) or 10 mM cystamine for 3 days on ice. The mixtures were then subjected to a second gel filtration on a Sephadex G-25 column to remove excess GSSG and cystamine. If necessary, the resultant preparations were concentrated by ultrafiltration with Centricon YM-3 filter (Millipore). Heat treatment of NTS-reduced BLG was carried out for 1 hour at 55° C. after reduction at 4° C. overnight. Raw cow's milk (47 mg protein/ml) was reduced with 50 mM DTT and blocked with cystamine and GSSG as described above for BLG. Heated milk was prepared by incubation for 1 hour at 55° C. and gel filtration with A Sephadex G-25 column.
Skin Tests. The background of the dog colony, immunization schedule and procedure for skin testing have been previously described in Examples 36-39 and also in del Val et al., 1999, Buchanan et al., 1997, Ermel et al., 1997, Frick and Brooks, 1983, herein incorporated by reference. Here, 3 litters of the 7th generation designated 7FA, 7FB and 7FC were immunized with commercial preparations (Bayer) of cow's milk, soybean and other food extracts (wheat or barley and walnut, Brazil nut and peanut) and also ragweed pollen. BLG samples for testing were prepared in half-log dilutions with PBS; 100 μL of each dilution was injected intradermally on the dog's abdomen.
Estimation of Relative Allergenicity. Wheal area of each spot was plotted by the Lineweaver-Burk double-reciprocal plot to obtain the maximum wheal area. The log of the dose of BLG that effects a half-maximum of wheal area with the control sample, termed Effective Dose 50 (ED50), was calculated and used for statistical analysis. For simplification, ratio of the reciprocal of ED50 to that of the control sample is presented below as relative allergenicity.

allergic dogs = experiment: Skin tests with giant ragweed pollen extract; format: in vivo, dog
Procedure: Reduction of pollen proteins by the thioredoxin system. Giant ragweed allergen extract, purchased from Bayer Inc., was analyzed for protein by the Bradford assay using bovine γ-globulin as standard (Wong, J. H. et al. (1995) “Thioredoxin and seed proteins” Methods Enzymol 252:228-240). […] The extent of reduction was determined by the SDS-PAGE/monobromobimane procedure as previously described above and also as described by Wong et al. (Ibid.). Gels were visualized under U.V.
Skin tests. Procedures to measure the type I hypersensitivity reaction by skin tests in allergic […] were substantially the same to those previously described above (see, Examples 36, 37 and 39). In brief, Evans blue dye 0.5% (0.2 ml/kg) was injected intravenously 5 minutes prior to skin testing. Aliquots of 0.1 ml of pollen allergen extract were injected intradermally on ventral abdominal skin in half-log dilutions. Skin tests were read blindly by the same experienced blinded observer scoring two perpendicular diameters for each blue spot. Appropriate negative controls (diluted in PBS) were included for each animal tested.
Data analysis. The statistical significance of the skin test results showing the thioxedoxin-linked mitigation of pollen allergens was determined by paired one-tailed, t-tests. […] The t-tests were completed for each dilution series (0.07 to 219 ng allergen) at 0.05 level of significance on all sensitive dogs (df≅8).

trypsin = experiment: Trypsin proteolysis of purified milk allergens; format: biochemical; settings: 10 μg NTS reduced protein, 2 μg trypsin
Procedure: The analysis of the reduction was done using the mBBr/SDS-PAGE techniques. Further in this study, when 10 μg of an NTS reduced purified milk allergen protein, β-lactoglobulin (Sigma Chemical Co.), was treated with 2 μg of trypsin, proteolysis was 100% as compared with only 50% for the identically trypsin treated oxidized β-lactoglobulin. […] However, 10 μg of purified α-lactalbumin reduced by the NTS was proteolyzed 80% by trypsin. Also 10 μg of α-lactalbumin reduced by 0.8 μg of thioredoxin and 0.5 mM DTT was 100% proteolyzed by 2 μg of trypsin.

N[C@@H](CCC(=O)N[C@@H](CS)C(=O)NCC(=O)O)C(=O)O [Glutathione, glutathione, reference compound]
Glutenin, % Relative Reduction, 30-40 kDa (Glutenin 30-40 kDa): 29%
Glutenin, % Relative Reduction, 60-110 kDa (Glutenin 60-110 kDa): 31%

NTS-reduced & heated: BLG heated for 1 hour at 55° C. following NTS-reduction at 4° C. overnight
times less allergenic than native (control) BLG, from ED50 [1]: about 5 times

NTS/CYM: BLG treated with cystamine following NTS-reduction
times less allergenic than native (control) BLG, from ED50 [1]: about 2.5 times

NTS/GSSG: BLG treated with GSSG following NTS-reduction
times less allergenic than native (control) BLG, from ED50 [1]: about 2.5 times

Thioredoxin: E. coli thioredoxin reduced by NADPH and NTR
Mitigation of skin test response (allergic dogs; Allergen 0.07 ng): Not Signiticant
Mitigation of skin test response (allergic dogs; Allergen 0.22 ng): Not Significant
Mitigation of skin test response (allergic dogs; Allergen 0.66 ng): Significant
Mitigation of skin test response (allergic dogs; Allergen 2.2 ng): Significant
Mitigation of skin test response (allergic dogs; Allergen 6.6 ng): Significant
Mitigation of skin test response (allergic dogs; Allergen 22 ng): Significant
Mitigation of skin test response (allergic dogs; Allergen 66 ng): Significant
Mitigation of skin test response (allergic dogs; Allergen 219 ng, paired one tail t test, P 0.05): Not Significant
Glutenin, % Relative Reduction, 30-40 kDa (Glutenin 30-40 kDa; thioredoxin (NTS) = 100): 100%
Glutenin, % Relative Reduction, 60-110 kDa (Glutenin 60-110 kDa; thioredoxin (NTS) = 100): 100%

B1: α-lactalbumin: purified milk allergen (Sigma) (protein, UniProt P00711 20-142, looked up)
Alpha-lactalbumin: EQLTKCEVFRELKDLKGYGGVSLPEWVCTTFHTSGYDTQAIVQNNDSTEYGLFQINNKIWCKDDQNPHSSNICNISCDKFLDDDLTDDIMCVKKILDKVGINYWLAHKALCSEKLDQWLCEKL
proteolysis by trypsin (trypsin): 80%

B2: Glutaredoxin: E. coli glutaredoxin with NADPH, reduced glutathione and glutathione reductase (NGS) (protein, UniProt P68688 1-85, looked up)
Glutaredoxin 1: MQTVIFGRSGCPYCVRAKDLAEKLSNERDDFQYQYVDIRAEGITKEDLQQKAGKPVETVPQIFVDQQHIGGYTDFAAWVKENLDA
modifications: with NADPH, glutathione, glutathione reductase
Glutenin, % Relative Reduction, 30-40 kDa (Glutenin 30-40 kDa; thioredoxin (NTS) = 100): 40%
Glutenin, % Relative Reduction, 60-110 kDa (Glutenin 60-110 kDa; thioredoxin (NTS) = 100): 50%
